We go through 1 molecule from US20120101147A1, “INHIBITION OF HDAC2 TO PROMOTE MEMORY” (The General Hospital Corporation d/b/a Massachusetts …, priority 2008, published 2012).

In this test the test system is H4K12 acetylation in HEK293 cells. As to the kind of experiment: Western blot of H4K12 acetylation in whole HEK293 cells. Particulars: 10 uM, 6 hour. It is filed as cell-based. As to the method:
Series of compounds incubated with whole HEK293 cells at 10 uM for a 6 hour time period. Western blot showing increased acetylation levels over DMSO controls using anti-acetyl H4K12 antibodies and horseradish peroxidase conjugated secondary antibody along with a luminol-based substrate.
Relative to the DMSO control, multiple selectivity profiles are effective in increasing H4K12 acetylation levels. […] BRD-4097 is the negative control.
Standard western blotting methods were used to measure the effects of HDAC inhibitors on histone acetylation marks in […]. Series of compounds were incubated with whole HEK293 cells at 10 uM for a 6 hour time period. […] Quantification of the raw western data (FIG. 10) established that relative to the DMSO control, multiple selectivity profiles are effective in increasing H4K12 acetylation levels, and that HDAC 1,2 and HDAC 1,2,3 selective inhibitors have robust HDAC activity in whole cells on a specific histone loci (H4K12).
On the technique in general: Immunoblotting shows a protein as a band on a membrane.

The structures appear in SMILES notation.

Take `Nc1ccc(-c2cccs2)cc1NC(=O)c1ccc(/C=C/C(=O)NCCc2ccccn2)cc1` [BRD-9853, (E)-N-(2-amino-5-(thiophen-2-yl)phenyl)-4-(3-oxo-3-(2-(pyridin-2-yl)ethylamino)prop-1-enyl)benzamide]: the “H4K12 acetylation levels relative to DMSO control” value is reported as “minimal activity”.
